From ChEMBL document CHEMBL1147052, “Innate immunity and transcription of MGAT-III and Toll-like receptors in Alzheimer's disease patients are improved by bisdemethoxycurcumin” (Proc Natl Acad Sci U S A, 2007)
Activity calls are given as the source filed them.

Columns and labels:
Type in all cases: functional, cell-based
Conditions in all cases: Homo sapiens
[1] = system: Macrophage; test: Induction of amyloid beta phagocytosis in macrophages from Alzheimer's disease patient at 0.1 uM
[2] = system: PBMC; test: Upregulation of MGAT3 transcription in PBMC from Alzheimer's disease patient
[3] = system: PBMC; test: Upregulation of TLR transcription in PBMC from Alzheimer's disease patient
[4] = system: PBMC; test: Increase in TLR2 protein expression in PBMC from Alzheimer's disease patient at 0.1 uM by flow cytometry
[5] = system: PBMC; test: Increase in TLR3 protein expression in PBMC from Alzheimer's disease patient at 0.1 uM by flow cytometry
[6] = system: PBMC; test: Increase in TLR4 protein expression in PBMC from Alzheimer's disease patient at 0.1 uM by flow cytometry

Measured: Activity

O=C(/C=C/c1ccc(O)cc1)CC(=O)/C=C/c1ccc(O)cc1
active: all assays above
